In patent publication US20080249154A1, “Preventive and/or Therapeutic Agent For Disease In Which Mitochondrial Benzodiazephine Receptor Participates” (ONO PHARMACEUTICAL CO., LTD., priority 2003, published 2008) one finds Ki data, which are given here for 1 compound.

The assay deals with T1, MBR (mitochondrial benzodiazepine receptor) (Rattus norvegicus, UniProt P16257).
T1 construct: from tissue; host or cells: male Wistar rat whole brain with cerebellum removed, crude membrane pellet
The assay can be described thus: Receptor binding experiment: [3H]PK11195 competition binding, rat brain membrane preparation. The note with it: [3H]PK11195 0.5 or 1 nmol/L, 1 hour at room temperature, calculated by Cheng and Prusoff formula from KD and IC50, read-out: Ki value (inhibition constant). As to the method: The affinity of the compounds in the present invention to MBR was determined using rat brain membrane preparation. In addition, the measurement in the present invention was improved the accuracy of measurement and the sensitivity of measurement for evaluating the compounds in the present invention as follows. After male Wister rats were decapitated to extirpate the whole brain and cerebellums were removed. They were homogenized in ice-cold 50 mmol/L Tris-HCL buffer solution (pH7.4), centrifuged and the obtained pellets were washed. The pellets resuspended and adjusted to about 1 mg/mL were used as rat brain membrane preparations for binding assay. The binding assay were experimented using [^3H]PK11195 as a MBR selective ligand. […]
To determine the amount of total binding in saturation binding experiment, membrane preparations, various concentrations of [^3H]PK11195, final concentration: 0.5 vol % dimethylsulfoxide (DMSO) and 50 mmol/L Tris-HCL buffer solution (pH7.4) were mixed (total volume 200 μL) and were incubated for 1 hour at room temperature. […] The filter was dried and then the radioactivity on the filter was measured by liquid scintillation counter. The data obtained by the binding experiments were Scatchard analyzed using analysis software, KELL (Ver.6, BIOSOFT) and the dissociation constant (KD value) was determined. […]

SMILES strings stand for the structures.

`O=C(CCc1ccccc1)Nc1c2c(nn1-c1ccc(Cl)cc1)CSC2` [Example 8(8), N-[2-(4-chlorophenyl)-2,6-dihydro-4H-thieno[3,4-c]pyrazol-3-yl]-3-phenylpropanamide]: the Ki (usually the dissociation constant of the complex between target and ligand, obtained from inhibition or displacement) was 99 nM.
